Source: patent US20070299119A1, “Prophylactic or Therapeutic Agent for Severe Diabetic Retinopathy” (SANWA KAGAKU KENKYUSHO CO., LTD., priority 2004, published 2007)

Tested on: severe retinopathy (tractional retinal detachment, IRMA) in SDT rats
Assay: Histopathological examination and fluorescein fundus angiography of severe retinopathy in spontaneously diabetic Torii (SDT) rats
Assay type: in vivo, rat
Experimental: Diabetes mellitus occurs in spontaneously diabetic Torii (SDT) rats at about 20 weeks of age. Accordingly, blood glucose levels were confirmed at about 25 weeks of age, and rats showing an increase in blood glucose level (at least 300 mg/dl) were used in the experiment. The male SDT rats confirmed to develop diabetes mellitus were divided into two groups, that is, 1) untreatment control (n=14) group and 2) SNK-860 treatment (16 mg/kg/day, n=17)group. The compound was mixed with usual feed (CRF-1: Oriental Yeast Co., Ltd.) and then administered into the rats. The CRF-1 solid feed not containing the compound was freely ingested by the control group, while CRF-1 solid feed containing 0.01333% SNK-860 was freely ingested by the SNK-860 treatment group. At 36 weeks of age and at 52 to 58 weeks of age, the rats were anesthetized and then the eyeballs were excised and used in histopathological examination. The SNK-860-containing feed was prepared in the following manner. SNK-860 was weighed and mixed well with a small amount of CRF-1 powdered feed. Thereafter, additional powdered feed was added thereto, stirred well and solidified. The dose established this time was 16 mg/kg. The concentration of this agent in the feed, calculated on the basis of the established dose, the weight of the rat and the amount of the feed ingested for 1 day, was 0.01333%. The histopathological examination was carried out in the following manner. The rat was anesthetized with ether and by intraperitoneal administration of Nembutal, and then the eyeballs were excised. The excised eyeballs were placed in a mixed solution (1:1:2) consisting of 4% glutaraldehyde, 10% neutral formalin and a phosphate buffer (pH 7.2, 0.3 mol/l). After 60 minutes, the eyeball was cut into halves under a stereoscopic microscope and then stored overnight at 4° C. The next morning, the eyeballs were embedded in a usual manner into paraffin to prepare a transverse section containing a bundle of optic nerves. The section was stained with hematoxylin-eosin. Fluorescein fundus angiography was carried out by opening the chest under the same anesthesia, injecting fluorescein dextran (Sigma, 50 mg/1 ml PBS) into the heart, and after 5 minutes, excising the eyeballs. That is, the retina was separated from the excised eyeball, spread on a slide glass to prepare a flat mounted specimen of the retina, then observed with a stereoscopic fluorescent microscope and photographed to evaluate retinopathy. When retinal fold (retinal detachment) accompanied by thickening of the retina around optic nerve head was recognized in the pathological examination, or when fluorescence dye leakage accompanied by retinal vascular tortuosity and/or caliber variation around optic nerve head was recognized in the fluorescein fundus photography, it was assumed that severe retinopathy occurred in the SDT rat. […] That is, it was attempted to clarify the inhibitory effect on the onset by setting a longer duration of the disease.

[1] = male SDT rats, 16 mg/kg/day in feed from about 25 weeks of age, at 36 weeks of age, pathological examination

NC(=O)[C@@H]1C[C@]2(NC(=O)NC2=O)c2cc(F)ccc2O1 [SNK-860, (2S,4S)-6-fluoro-2′,5′-dioxospiro[chroman-4,4′-imidazolidine]-2-carboxamide]
inhibitory effect on the onset of tractional retinal detachment (in words) (SDT rats, long-term administration): strongly inhibited
onset of tractional retinal detachment (affected eyes/examined eyes) [1]: 0/3
onset of tractional retinal detachment (percent of eyes) [1]: 0%
degree of onset of tractional retinal detachment or fluorescence dye leakage accompanied by retinal vascular tortuosity and/or caliber variation around optic nerve head (affected eyes/examined eyes) (male SDT rats, 16 mg/kg/day in feed from about 25 weeks of age, at 52-58 weeks of age, untreated 7/11 eyes): 3/14
degree of onset of tractional retinal detachment or fluorescence dye leakage accompanied by retinal vascular tortuosity and/or caliber variation around optic nerve head (percent of eyes) (male SDT rats, 16 mg/kg/day in feed from about 25 weeks of age, at 52-58 weeks of age, untreated 64%): 21%
